Laboratory results as given in patent publication US6506876B1, “LTA4 hydrolase inhibitor pharmaceutical compositions and methods of use” (G.D. Searle & Co., priority 1994, dated 2003).
Counter-ions that a name gives are not always drawn. Like-named read-outs stand apart in the source and are kept apart here. Blank lines part the entries; values can stand above or below the compound they belong to.

Key:
[1] = tested on: LTB4 production in mouse blood (LTA4 hydrolase); test: Ex vivo LTB4 production by calcium ionophore stimulated mouse blood after oral dosing; format: in vivo
Summary of the method: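 Male outbred mice dosed by oral gavage, 10 mg/kg (some at 50 mg/kg) in PBS with 2% DMSO and 1% Tween 80; heparinised blood taken at 60 min, calcium ionophore-stimulated 10 minutes at 37° C. LTB4 and thromboxane by ELISA; % inhibition against vehicle-dosed animals.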

[2] = biological target: T1, recombinant human LTA4 hydrolase (rhLTA4H) (Homo sapiens, UniProt P09960); test: Recombinant human LTA4 hydrolase assay for LTA4 hydrolase inhibitor activity; settings: Recombinant Human LTA4 Hydrolase Assay IC50 LTA4H, recombinant hLTA4H
T1 sequence (P09960 1-611): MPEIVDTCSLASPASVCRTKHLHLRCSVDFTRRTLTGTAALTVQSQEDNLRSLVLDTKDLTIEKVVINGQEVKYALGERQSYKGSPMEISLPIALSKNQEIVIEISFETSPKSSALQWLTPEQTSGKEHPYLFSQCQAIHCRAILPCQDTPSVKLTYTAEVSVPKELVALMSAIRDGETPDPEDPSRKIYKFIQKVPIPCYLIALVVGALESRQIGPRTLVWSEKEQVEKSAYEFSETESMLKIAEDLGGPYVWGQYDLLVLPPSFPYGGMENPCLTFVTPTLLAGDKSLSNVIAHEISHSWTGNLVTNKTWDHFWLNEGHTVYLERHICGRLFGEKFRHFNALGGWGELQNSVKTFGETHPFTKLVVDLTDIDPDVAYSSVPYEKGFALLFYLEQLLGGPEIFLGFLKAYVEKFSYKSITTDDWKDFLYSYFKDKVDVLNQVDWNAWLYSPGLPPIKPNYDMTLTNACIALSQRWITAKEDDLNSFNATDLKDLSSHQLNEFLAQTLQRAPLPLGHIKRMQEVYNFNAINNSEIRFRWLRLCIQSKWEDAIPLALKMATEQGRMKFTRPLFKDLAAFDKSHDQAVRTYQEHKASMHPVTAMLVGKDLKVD
Protocol: One or more predetermined amounts of a compound of the invention were incubated in assay buffer (0.1 M potassium phosphate, 5 mg/ml fatty acid free BSA, 10% DMSO, pH 7.4) for 10 minutes at room temperature with 250 ng of recombinant hLTA4H to allow binding, if any, between the enzyme and inhibitor. The stock enzyme solution was 1 mg/ml LTA4 hydrolase, 50 mM Tris, pH 8.0, 150 mM NaCl, 2.5 mM beta-mercaptoethanol, 50% glycerol. […] Each reaction was carried out at room temperature for 10 minutes. The reaction was stopped by diluting 25 μl of the reaction mixture with 500 μl of the assay buffer without DMSO. LTB4 was quantified in the diluted sample by a commercially available enzyme-linked immunoassay [Caymen Chemical Co., Ann Arbor, Mich.] using the method recommended in the manufacturer's instructions and compared to the amount of LTB4 produced in a negative control (i.e., essentially identical conditions except without addition of an inhibitor compound). The IC50 was routinely calculated from the data produced.

[3] = tested on: LTB4 production in human whole blood (LTA4 hydrolase); test: LTB4 production by calcium ionophore stimulated human blood; format: cell-based; settings: read-out: Inhibition of Calcium Ionophore-Induced LTB4 Production in Human Blood IC50 HWB
Protocol: LTB4 and Thromboxane Production by Calcium Ionophore Stimulated Human Blood for LTA4 Hydrolase Inhibitor Activity
One or more concentrations of the leukotriene A4 hydrolase inhibitor compounds being tested were prepared (diluted in DMSO) and 2 μl added and gently mixed with the diluted whole blood. After incubating for 15 minutes at 37° C. in a humidified incubator, calcium ionophore A23187 (Sigma Chemical Co., St. Louis, Mo.) was added to a final concentration of 20 mcg/ml and the incubation continued under the same conditions for an additional 10 minutes to allow LTB4 formation. The reaction was terminated by centrifugation (833 g, 10 minutes at 4° C.) and supernatant were analyzed for LTB4 and thromboxane by commercially available enzyme-linked immunoassays (Caymen Chemical Co., Ann Arbor, Mich.) according to the manufacturer's instructions. The IC50 of each test compound was determined from the amount of inhibition of LTB4 production as compared to an essentially identical assay in which no inhibitor compound was present.

LTA4 hydrolase = biological target: T2, LTA4 hydrolase (Homo sapiens, UniProt P09960); settings: background statement; cited from earlier work
T2 sequence (P09960 1-611): T1 sequence (P09960 1-611)

[4] = Mus musculus, po, 1 h; read-out: Murine Ex Vivo LTB4 Inhibition % I LTB4
[5] = Mus musculus, po, 1 h, read-out: Murine Ex Vivo LTB4 Inhibition % I LTB4
[6] = mouse, oral gavage, 1 hour after administration of 10 mg/kg; read-out: Murine Ex Vivo LTB4 Inhibition % I LTB4
[7] = Homo sapiens, human whole blood, A23187

Compound: c1ccc(Oc2ccc(NCCN3CCCC3)cc2)cc1 (as salt: HCl) [Example 71, N-(4-phenoxyphenyl)-1-pyrrolidine ethanamine, monohydrochloride]
melting point: 202 to 202.5 °C

Compound: c1ccc(Cc2ccc3c(c2)CC(Cn2cnc4cnccc42)O3)cc1 (stereo not shown) [358 B]
inhibition in vivo at 10 mg/kg [1, 4]: 33%
IC50 [2]: 0.41 µM
IC50 ([3]; human whole blood, A23187): 0.64 µM

Compound: c1ccc(Cc2ccc3c(c2)CC(Cn2ccc4ncnc-4c2)O3)cc1 (stereo not shown) [358 C]
inhibition in vivo at 10 mg/kg [1, 4]: 13%
IC50 [2]: 0.087 µM
IC50 ([3]; human whole blood, A23187): 0.59 µM

Compound: Cl.c1ccc(Cc2ccc(SCCN3CCCC3)cc2)cc1 [Example 68, 1-[2-[4-(phenylmethyl)phenylthio]ethyl]pyrrolidine, monohydrochloride]
melting point: 137 to 139 °C

Compound: [O-][S+](CCN1CCCC1)c1ccc(Cc2ccccc2)cc1 (stereo not shown) [Example 69, 1-[2-[4-(phenylmethyl)phenylsulfinyl]ethyl]pyrrolidine, monohydrochloride]
inhibition in vivo at 10 mg/kg [1, 5]: 13%
IC50 [2]: 6.52 µM
IC50 ([3]; Homo sapiens): 11.8 µM

Compound: OCCOc1ccc(Oc2ccc(F)cc2)cc1 [Example 161]
melting point: 78 to 79 °C

Compound: CCOC(=O)C1CCN(CCOc2ccc(Cc3ccccc3)cc2)CC1 [Example 245]
inhibition in vivo at 10 mg/kg [1, 5]: 97%
IC50 [2]: 1.77 µM
IC50 ([3]; Homo sapiens): 0.147 µM

Compound: CCOC(=O)CCNCCCOc1ccc(Cc2ccccc2)cc1 [Example 265]
inhibition in vivo at 10 mg/kg [1, 6]: 54%
IC50 [2]: 0.077 µM
IC50 [3, 7]: 0.45 µM

Compound: COC(=O)C1CC2CCC(C1)N2CC1Cc2cc(Cc3ccccc3)ccc2O1 (stereo not shown) [Example 283]
inhibition in vivo at 10 mg/kg [1, 5]: 90%
IC50 [2]: 0.019 µM
IC50 ([3]; Homo sapiens): 0.09 µM

Compound: CN(CCCOc1ccc(Cc2ccccc2)cc1)CCC(=O)O [Example 434]
inhibition in vivo at 10 mg/kg [1, 5]: 100%
melting point: 113 to 116 °C

Compound: C1=CC2CC1CN2CCOc1ccc(Cc2ccccc2)cc1 (stereo not shown) [Example 497]
inhibition in vivo at 10 mg/kg [1, 6]: 45%
IC50 [2]: 0.2 µM
melting point: 37 to 38 °C

Compound: CC(C)C[C@H](NC(=O)[C@@H](O)[C@H](N)Cc1ccccc1)C(=O)O [bestatin]
LTA4 hydrolase inhibitory activity (LTA4 hydrolase): exhibit LTA4 hydrolase inhibitory activity

Compound: C[C@H](CS)C(=O)N1CCC[C@H]1C(=O)O [captopril]
LTA4 hydrolase inhibitory activity (LTA4 hydrolase): exhibit LTA4 hydrolase inhibitory activity

Further lines, with some results ahead:

melting point: 113 to 115 °C
Compound: Oc1ccc(OCCN2CCCC2)cc1 [Example 199]

IC50 [2]: 0.093 µM
IC50 [3, 7]: 0.169 µM
Compound: NC(=O)C1CCN(CC2Cc3cc(Cc4ccccc4)ccc3O2)CC1 (stereo not shown) [Example 281]
inhibition in vivo at 10 mg/kg [1, 6]: 83%

IC50 [2]: 0.22 µM
IC50 [3, 7]: 0.47 µM
Compound: c1ccc(Cc2ccc(OCCN3CCCCCCC3)cc2)cc1 [Example 398]
inhibition in vivo at 10 mg/kg [1, 6]: 0%

IC50 [2]: 0.11 µM
melting point: 165 to 169 °C
Compound: O=C(O)[C@@H]1CCCN1CCCOc1ccc(Cc2ccccc2)cc1 [Example 430]
inhibition in vivo at 10 mg/kg [1, 6]: 37%

melting point: 165 to 167 °C
IC50 [3, 7]: 0.28 µM
Compound: O=C(O)CCNCCCOc1ccc(Cc2ccccc2)cc1 [Example 431]
inhibition in vivo at 10 mg/kg [1, 6]: 71%

melting point: 140 to 141 °C
Compound: O=C(O)CCNCCCCOc1ccc(Cc2ccccc2)cc1 [Example 433]
inhibition in vivo at 10 mg/kg [1, 6]: 71%

melting point: 132 to 134 °C
IC50 [3, 7]: 0.35 µM
Compound: NC(=O)NC1CCN(CCOc2ccc(Cc3ccccc3)cc2)C1 (stereo not shown) [Example 453]
inhibition in vivo at 10 mg/kg [1, 6]: 92%

IC50 [2]: 0.01 µM
IC50 [3, 7]: 0.28 µM
Compound: NCCOc1ccc(Cc2ccccc2)cc1 [Example 496]
inhibition in vivo at 10 mg/kg [1, 6]: 54%
